# Test results as given in patent US6783985B1, “Gene disruption methodologies for drug target discovery” (Elitra Pharmaceuticals Inc., priority 2000, dated 2004).
# How the values were obtained:
# [1] = test system: S. cerevisiae bar-coded strains bearing heterozygous mutations in HIS3, TUB1, ALG7, and ERG11; settings: grown together in a mixed population; targets HIS3, TUB1, ALG7, ERG11 respectively; cited from earlier work
# [2] = test system: wild type (diploid) CaHIS3 strain, CaHIS3 heterozygote strain and tetracycline promoter-regulated CaHIS3 GRACE strain; assay: Target level variation whole cell assay: 3-AT sensitivity of CaHIS3 strains; format: cell-based, Candida albicans; settings: for sensitivity of partially repressed (minimally expressing) CaHIS3 GRACE strain relative to heterozygous CaHIS3 strain: intermediate 3-AT concentration, threshold tetracycline (FIG. 6C, 6D)
# Excerpt: The data derived from these experiments clearly indicate that distinct levels of target gene products synthesized within the pathogen could be directly applied in whole cell assay based drug screens to identify novel antifungal compounds active against novel drug targets validated using the GRACE method.
# 3-AT is a competitive inhibitor of the enzyme encoded by CaHIS3, imidazoleglycerol phosphate dehydratase, and together serve as a model for a drug and drug target respectively. […] The phenotype observed is consistent with that expected in light of the predicted 7.5 fold overexpression of CaHIS3 determined by Northern bolt analysis (see FIG. 5). […] A third CaHIS3 expression level evaluated for differential sensitivity to 3-AT was produced by partial repression of the GRACE CaHIS3 strain using a threshold concentration of tetracycline 0.1% […].
# (§1) Moreover, these experiments clearly indicate how distinct levels of target gene products synthesized within the pathogen could be directly applied in whole cell assay based drug screens to identify novel antifungal compounds against those novel drug targets validated using the GRACE method.
# [3] = test system: CaERG11; settings: determined biochemically; cited from earlier work
# [4] = test system: CaERG11 GRACE strain; assay: Target level variation whole cell assay, CaERG11 GRACE strain; format: cell-based, Candida albicans
# Excerpt: as §1
# [5] = test system: C. albicans; assay: Sensitivity of C. albicans to selection antibiotics; format: cell-based, Candida albicans
# Excerpt: Several art-known methods are available to create a heterozygote mutant. In less preferred embodiments, auxotrophic markers, such as but not limited to CaURA3, CaHIS3, CaLEU2, or CaTRP1, could be used for gene disruption if desired. However, the preferred method of heterozygote construction in diploid fungi employs a genetically modified dominant selectable marker. C. albicans is sensitive to the nucleoside-like antibiotic streptothricin at a concentration of 200 micrograms per milliliter. The presence of the Escherichia coli SAT1 gene within C. albicans allows acetylation of the drug rendering it nontoxic and permitting the strain to grow in the presence of streptothricin at a concentration of 200 micrograms per milliliter. Expression of the SAT1 gene in C. albicans is made possible by engineering the gene so that its DNA sequence is altered to conform to the genetic code of this organism and by providing a CaACT1 promoter (Morschhauser et al. (1998) Mol. Gen. Genet. 257:412-420) and a CaPCK1 terminator sequence (Leuker et al. (1997) Gene 192: 235-40). This genetically modified marker is referred to as CaSAT1 which is the subject of a copending United States nonprovisional application, filed Feb. 16, 2001. […]
# [6] = test system: CaALG7 GRACE strain; assay: Target level variation whole cell assay, CaALG7 GRACE strain; format: cell-based, Candida albicans
# Excerpt: as §1
# [7] = intermediate 3-AT concentration (FIG. 6B)
molecule,measurement,setting,value
"Nc1nc[nH]n1 [3-AT, 3-aminotriazole]",sensitivity of the strain heterozygous for the compound's drug target versus other heterozygote bar-coded strains,[1],significantly greater sensitivity
same,phenotype of CaHIS3 GRACE strain overexpressing CaHIS3 (constitutive tetracycline promoter expression),[2]; 3-AT concentrations that completely inhibit wild type and heterozygote (FIG. 6A),resistance
same,growth of wild type and CaHIS3 heterozygote strains,[2]; inhibitory levels of 3-AT (FIG. 6A),completely inhibit growth
same,effect on wild type and tetracycline promoter-based overproducing CaHIS3 strains,[2]; [7],unable to effect
same,sensitivity of heterozygous CaHIS3 strain (haploinsufficient phenotype),[2]; [7],enhanced sensitivity
same,sensitivity of partially repressed (minimally expressing) CaHIS3 GRACE strain relative to heterozygous CaHIS3 strain,[2],enhanced drug sensitivity
same,sensitivity of partially repressed (minimally expressing) CaHIS3 GRACE strain relative to heterozygous CaHIS3 strain,[2]; listed as 3-aminotriazole,hypersensitivity
OC(Cn1cncn1)(Cn1cncn1)c1ccc(F)cc1F [fluconazole],sensitivity of the strain heterozygous for the compound's drug target versus other heterozygote bar-coded strains,[1],significantly greater sensitivity
same,"mode of action, static or cidal",[3],static
same,GRACE strain-specific phenotypes on increasing and decreasing expression of the drug target CaERG11,[4],drug resistance and sensitivity phenotypes
CN(CC[C@H](N)CC(=O)N[C@H]1C=C[C@H](n2ccc(N)nc2=O)O[C@@H]1C(=O)O)C(=N)N [blasticidin],sensitivity of C. albicans to the fungicidal compound,[5],sensitive
tunicamycin,sensitivity of the strain heterozygous for the compound's drug target versus other heterozygote bar-coded strains,[1],significantly greater sensitivity
same,GRACE strain-specific phenotypes on increasing and decreasing expression of the drug target CaALG7,[6],drug resistance and sensitivity phenotypes
streptothricin,sensitivity of C. albicans to the antibiotic,[5]; streptothricin at 200 micrograms per milliliter,sensitive
CCCCNC(=O)n1c(NC(=O)OC)nc2ccccc21 [benomyl],sensitivity of the strain heterozygous for the compound's drug target versus other heterozygote bar-coded strains,[1],significantly greater sensitivity
